Read-outs that look alike come from different tables or passages of the source.

For experiment [1], the system named is Monochoria vaginalis Presl. Briefly: Test Example 1: effect of the herbicide composition against paddy field weeds (pot test, green house). It is filed as in vivo. Conditions: Pontederia vaginalis, 504 h, read-out: Herbicidal effect (%) MOOVP; for pest or weed control at 2.5 g/ha: 2.5 g/ha single; for pest or weed control at 5 g/ha: 5 g/ha single. The text has this:
(§1) • Component (a) (a-1): compound No. 1 (ref: the aforementioned Table A) • (a-2): compound No. 3 (same as above) • (a-3): compound No. 11 (same as above) • Component (b) the aforementioned (b-1)-(b-15) • Component (c) the aforementioned (c-1)-(c-3) <Preparation of Test Agents> • Carrier: Acetone 5 parts by weight • Surfactant: Benzyloxy polyglycol ether 1 part by weight The above-mentioned carrier and surfactant and 1 part by weight of active compounds (component (a) and component (b) or component (c)) are mixed and the obtained formulations are diluted with water to prepare the test agents of the prescribed chemicals amount (preparations).
(§2) In a green house, seeds or tubers of Monochoria vaginalis Presl, annual broad-leaves (Lindernia procumbens Philcox, Rotala indica Koehne, Elatine triandra Schk, Ammannia multiflora Roxb., etc.), Cyperus serotinus Rottboel, and Sagittaria pygmaea Miq were inoculated to paddy field soil filled in a 500 cm^2 pot and brought to a submerged condition of about 2-3 cm. At 1.5-2 leafstage of each weed prescribed diluted solution of preparation of each active compound and each herbicide in the following table was applied on water surface each singly or simultaneously. After the treatment, the submerged condition of 3 cm was maintained and the herbicidal effect was studied 3 weeks after the treatment. The herbicidal effect was evaluated as 100% in case of complete death and 0% in case of no effect.
(§3) In the tables, MOOVP represents Monochoria vaginalis Presl, BBBBB represents annual broad-leaves, CYPSE represents Cyperus serotinus Rottboel and SAGPY represents Sagittaria pygmaea Miq.

In experiment [2] the test system is Cyperus serotinus Rottboel. The description is as above. It is filed as in vivo. To be noted: Cyperus serotinus, 504 h, read-out: Herbicidal effect (%) CYPSE; for pest or weed control at 2.5 g/ha: 2.5 g/ha single; for pest or weed control at 5 g/ha: 5 g/ha single.
Text: as §1, §2, §3

The subject of a further experiment is Sagittaria pygmaea Miq. The description is as above. To be noted: Sagittaria pygmaea, 504 h, read-out: Herbicidal effect (%) SAGPY; for pest or weed control at 2.5 g/ha: 2.5 g/ha single; for pest or weed control at 5 g/ha: 5 g/ha single. Type of experiment: in vivo.
Text: as §1, §2, §3

Assay in experiment [3]: as above
Type of experiment: in vivo, annual broad-leaves. Conditions: 504 h, read-out: Herbicidal effect (%) BBBBB; for pest or weed control at 2.5 g/ha: 2.5 g/ha single; for pest or weed control at 5 g/ha: 5 g/ha single.
Text: as §2, with “At 1.5-2 leafstage of each weed prescribed diluted solution of preparation of each active compound and each herbicide in the following table was applied on water surface each singly or simultaneously.” left out
as §3

[4] abbreviates: 300 g/ha single, 3 weeks after treatment.
Where [5] appears, read: 600 g/ha single, 3 weeks after treatment.
The mark [6] stands for this setting: 75 g/ha single, 3 weeks after treatment.
Setting [7] is: 150 g/ha single, 3 weeks after treatment.
The mark [8] stands for this setting: 1.5 g/ha single, 3 weeks after treatment.
Setting [9] is: 3 g/ha single, 3 weeks after treatment.
Setting [10] is: 50 g/ha single, 3 weeks after treatment.
[11] abbreviates: 100 g/ha single, 3 weeks after treatment.

Take `CN(C(=O)COc1nc2ccccc2s1)c1ccccc1` [(b-9), mefenacet]: the pest or weed control at 300 g/ha amounted to 65% in experiment [1] (setting [4]), 30% in experiment [2] (setting [4]), 10% with Sagittaria pygmaea Miq (setting [4]) and 30% in experiment [3] (setting [4]). Besides, the pest or weed control at 600 g/ha is 80% in experiment [1] (setting [5]), 30% in experiment [2] (setting [5]), 10% with Sagittaria pygmaea Miq (setting [5]) and 40% in experiment [3] (setting [5]).
With `CS(=O)(=O)c1ccc(C(=O)C2C(=O)CCCC2=O)c(Cl)c1COCC1CCCO1` (centres unmarked) [(b-15), 2-{2-chloro-4-mesyl-3-[(tetrahydrofuran-2-ylmethoxy)-methyl]-benzoyl}-cyclohexan-1,3-dione], the pest or weed control at 75 g/ha came out at 85% in experiment [1] (setting [6]), 80% in experiment [2] (setting [6]), 80% in the experiment on Sagittaria pygmaea Miq (setting [6]) and 50% in experiment [3] (setting [6]). For the same compound, the pest or weed control at 150 g/ha in experiment [1] (setting [7]) was 95%; in experiment [2] (setting [7]), 85%; in the experiment with Sagittaria pygmaea Miq (setting [7]), 80%; in experiment [3] (setting [7]) it was 65%.
Consider `CCN(CC)C(=O)n1cnc(S(=O)(=O)c2c(C)cc(C)cc2C)n1` [(b-3), cafenstrole], for which the pest or weed control at 75 g/ha in experiment [1] is 50%; in experiment [2], 0%; in the experiment on Sagittaria pygmaea Miq, 10%; in experiment [3], 40%. The pest or weed control at 150 g/ha turned out to be 60% in experiment [1], 70% in experiment [2], 10% in the experiment on Sagittaria pygmaea Miq and 50% in experiment [3].
For the compound `COc1cc(OC)nc(Oc2cccc(Oc3nc(OC)cc(OC)n3)c2C(=O)O)n1` [(b-7), bispyribac-sodium], the pest or weed control at 2.5 g/ha came to 0% in experiment [1] (3 weeks after treatment), 20% in experiment [2] (3 weeks after treatment), 0% with Sagittaria pygmaea Miq (3 weeks after treatment) and 10% in experiment [3] (3 weeks after treatment). Further, the pest or weed control at 5 g/ha in experiment [1] (3 weeks after treatment) stood at 10%; in experiment [2] (3 weeks after treatment) it was 60%; in the experiment on Sagittaria pygmaea Miq (3 weeks after treatment) it was 30%; in experiment [3] (3 weeks after treatment) it was 10%.
Consider `COC(=O)c1ccccc1CS(=O)(=O)NC(=O)Nc1nc(OC)cc(OC)n1` [(b-12), bensulfuron-methyl], for which the pest or weed control at 2.5 g/ha was found to be 30% in experiment [1] (3 weeks after treatment), 40% in experiment [2] (3 weeks after treatment), 50% in the experiment with Sagittaria pygmaea Miq (3 weeks after treatment) and 50% in experiment [3] (3 weeks after treatment). Further, the pest or weed control at 5 g/ha in experiment [1] (3 weeks after treatment) amounted to 60%; in experiment [2] (3 weeks after treatment), 40%; in the experiment with Sagittaria pygmaea Miq (3 weeks after treatment), 50%; in experiment [3] (3 weeks after treatment) it was 60%.
Turning to `CCOc1ccccc1OS(=O)(=O)NC(=O)Nc1nc(OC)cc(OC)n1` [(b-13), ethoxysulfuron], the pest or weed control at 1.5 g/ha is 65% in experiment [1] (setting [8]), 0% in experiment [2] (setting [8]), 65% in the experiment on Sagittaria pygmaea Miq (setting [8]) and 40% in experiment [3] (setting [8]). Moreover, the pest or weed control at 3 g/ha in experiment [1] (setting [9]) is 70%; in experiment [2] (setting [9]) it was 0%; with Sagittaria pygmaea Miq (setting [9]) it was 65%; in experiment [3] (setting [9]), 70%.
Turning to `CCS(=O)(=O)Oc1ccc2c(c1)C(C)(C)CO2` [(b-11), benfuresate], the pest or weed control at 125 g/ha in experiment [1] came out at 0%; in experiment [2], 20%; in the experiment with Sagittaria pygmaea Miq, 10%; in experiment [3], 0%. Besides, the pest or weed control at 250 g/ha in experiment [1] is 0%; in experiment [2], 70%; in the experiment on Sagittaria pygmaea Miq, 20%; in experiment [3], 0%.
As for `CCN(C(=O)n1nnn(-c2ccccc2Cl)c1=O)C1CCCCC1` [(b-8), fentrazamide], the pest or weed control at 75 g/ha is 40% in experiment [1] (setting [6]), 30% in experiment [2] (setting [6]), 30% in the experiment with Sagittaria pygmaea Miq (setting [6]) and 40% in experiment [3] (setting [6]). Besides, the pest or weed control at 150 g/ha in experiment [1] (setting [7]) was found to be 60%; in experiment [2] (setting [7]), 30%; in the experiment with Sagittaria pygmaea Miq (setting [7]) it was 30%; in experiment [3] (setting [7]), 70%.
In the case of `COc1cnc(OC)n2nc(NS(=O)(=O)c3c(OCC(F)F)cccc3C(F)(F)F)nc12` [(b-5), penoxsulam], the pest or weed control at 50 g/ha in experiment [1] (setting [10]) was 75%; in experiment [2] (setting [10]), 70%; with Sagittaria pygmaea Miq (setting [10]), 65%; in experiment [3] (setting [10]), 50%. In addition, the pest or weed control at 100 g/ha was found to be 90% in experiment [1] (setting [11]), 70% in experiment [2] (setting [11]), 85% in the experiment with Sagittaria pygmaea Miq (setting [11]) and 90% in experiment [3] (setting [11]).
Take `CCCCOC(=O)[C@@H](C)Oc1ccc(Oc2ccc(C#N)cc2F)cc1` [(b-4), cyhalofop-butyl]: the pest or weed control at 90 g/ha in experiment [1] came to 0%; in experiment [2], 0%; with Sagittaria pygmaea Miq, 10%; in experiment [3] it was 0%. Moreover, the pest or weed control at 180 g/ha in experiment [1] is 10%; in experiment [2], 0%; in the experiment on Sagittaria pygmaea Miq, 20%; in experiment [3] it was 0%.
